This note sets out measurements from US10869931B2, “Polyethylene glycol-modified angiogenesis inhibitor HM-1 and application thereof” (NANJING ANJI BIOLOGICAL TECHNOLOGY CO.,LTD, priority 2016, dated 2020).

One test concerns mouse spleen lymphocytes. Nature of the test: ConA-stimulated mouse spleen lymphocyte proliferation (MTT). In kind it is cell-based. The conditions noted are these: 20 μg/mL, ConA 5 μg/mL, 48 h. How it is done:
Tris-NH4Cl was used to break the red blood cells, and the cells were allowed to stand in an ice water bath for 4 min, centrifuged (1000 rpm×5 min), the supernatant was discarded, and the cells were washed twice with sterile PBS. Finally, cells were suspended in RPMI 1640 medium (5 mL) supplemented with 10% calf serum, counted, adjusted to a cell concentration of 5×10^6/mL, and cultured in a 96-well culture plate The test group consisted of blank control group, concanavalin A (ConA) group, dexamethasone (Dex) group (0.02 mg/mL) and mPEG-HM-1 group. […] The cells were cultured in a 37° C. cell culture chamber for 48 h. After the completion of the culture, 20 μL of MTT was added to each well, and the culture was continued for 4 h. Finally, all the solutions in each well were discarded, 100 μL of DMSO was added to each well, and the mixture was shaken and detected by a microplate reader OD value at 570 nm, 5 parallels per hole.

In test [1] the test system is IL-1β production by mouse peritoneal macrophages. Nature of the test: IL-1β production by mouse peritoneal macrophages (ELISA). In kind it is cell-based. The conditions noted are these: 20 μg/mL, 48 h. How it is done:
(1) IL-1β production: mice were intraperitoneally injected with 1 mL of broth (containing 6%) starch, and three days later, the mouse peritoneal macrophages were aseptically taken, washed twice with 1640 medium, and the cell concentration was adjusted to 2×10^6 cells/mL, inject into a 24-well culture plate, 1 mL per well, incubate for 3 hours in a cell culture incubator, shake once every 30 minutes, and allow the cells to fully adhere. Then, it was washed twice with the culture solution to remove unattached cells. The blank group was added with PBS, the positive group was added with the positive drug dexamethasone (Dex), the model group was not administered, to the experimental group was added low, medium and high three concentrations of mPEG-HM-1, and the culture was continued for 48 hours after the administration, 1000 r/min. Centrifuge for 15 min. The supernatant was taken as a sample for testing activity of IL-1β.
(2) Determination of IL-1β content: using R&D mouse IL-1β enzyme-linked immunosorbent assay kit, according to the kit instructions as follows: respectively, the tested samples and different concentrations of standard products, sealed with sealing tape the reaction well and incubated at 37° C. for 90 min; the plate was washed four times; the biotinylated antibody working solution (100 μL/well) was added, and the reaction well was sealed with sealing paper, incubated at 37° c. for 60 min; the plate was washed four times; Add the enzyme conjugate working solution (100 μL/well), seal the reaction well with sealing paper, incubate at 37° C. for 30 min; wash the plate four times; add color reagent (100 μL/well), incubate at 37° C. 10-20 min, add stop solution (100 μL/well), mix and measure OD450 value.
On the technique in general: In an ELISA, binding on a coated surface is turned into a signal by an enzyme label.

Test [2] concerns Human Umbilical Vein Endothelial Cells (HUVEC). Nature of the test: Transwell migration of HUVEC. The test is classed as cell-based. The conditions noted are these: 10 μg/mL, 24 h. As to the method: 10 mg/mL Matrigel was diluted 1:2 with HUVEC-specific medium, spread on a transwell chamber membrane, and air-dried at room temperature. HUVEC cells cultured in logarithmic growth phase were digested with trypsin digest, collected, washed twice with PBS, and resuspended in blank HUVECs-specific medium. The cells were counted under a microscope, and the cell concentration was adjusted to 1×10^5/mL. The test solutions of each group were prepared and diluted to 100 μL with a blank HUVECs-specific medium. The cells were seeded into a transwell chamber at 100 μL per well, and each set of test solution was added to the chamber. The cell culture was stimulated by adding 0.6 mL of endothelial cell culture medium containing 5% fetal bovine serum and 1% ECGS into a 24-well plate, and cultured at 5% CO2 for 24 hour at 37° c. Discard the culture medium in the well, fix it with 90% alcohol at room temperature for 30 minutes, 0.1% crystal violet for 10 min at room temperature, rinse with water, gently wipe off the unsprayed cells in the upper layer with a cotton swab, observe under microscope and select four fields to take pictures. Calculate migration inhibition (MI) according to the formula: […]
Ntest was the number of cell migration in the test group, and Ncontrol was the number of cell migration in the blank control group.
The test was repeated 3 times independently. The results obtained from the test were calculated as mean±SD, and a statistical T test was performed. *P<0.05 was a significant difference, and **P<0.01 was a very significant difference.

Test [3] deals with human retinal vascular endothelial cells (HRCEC). Nature of the test: MTT proliferation of human retinal vascular endothelial cells. The test is classed as cell-based. The conditions noted are these: 10 μg/mL (positive control), 48 h. As to the method:
The activity of the angiogenesis inhibitor polypeptide to inhibit proliferation of human retinal vascular endothelial cells was examined by MTT assay. HRCEC cells were cultured in a 37° C., 5% CO2 incubator to a density of 90% or more, and collected by trypsinization. The cells were resuspended in the culture medium and counted under a microscope to adjust the cell concentration to 3.0×10^4 cells/mL. The cell suspension was inoculated into a 96-well plate at 100 μL per well and cultured overnight at 37° C. in a 5% CO2 incubator. After the cells were completely adhered, the angiogenesis inhibitor polypeptide was added as the administration group, and Avastin was used as the positive control group, and the culture media without any drug was used as a blank control group, and the culture media were diluted to each predetermined concentration. Each dilution was separately added to a 96-well plate at 100 μL per well and incubated for 48 h at 37° C. in a 5% CO2 incubator. 20 μL of 5 mg/mL MTT was added to each well of a 96-well plate and incubation was continued for 4 h. The medium was aspirated and dissolved in 100 μL of DMSO per well. […] The formula is as follows: PI (%)=1−administration group/negative group
The test was repeated 3 times independently. The results obtained by the test were expressed as mean±SD, and a statistical T test was performed. *P<0.05 was a significant difference, and **P<0.01 was a very significant difference.

In test [4] the test system is xylene-induced ear swelling in Kunming mice. Nature of the test: Xylene-induced ear swelling in mice. The test is classed as in vivo, mouse. The conditions noted are these: 200 mg/kg (positive control) once daily for 5 days. How it is done:
Kunming mice were used. The saline group was used as the blank control group, the aspirin group (200 mg/kg) as the positive control group, and the mPEG-HM-1 administration group as the experimental group. Mice were administered once daily for 5 consecutive days. The blank control group was given an equal volume of physiological saline. One hour after the last administration, 0.05 mL of xylene was applied to both sides of the right ear of the mice to cause inflammation, and the left ear was not coated as normal ears. After 2 h, the mice were sacrificed by dislocation, and the ears were cut along the auricle. Ear pieces were taken with a puncher, weighed, and the swelling degree and swelling rate were calculated. Swelling degree=right ear piece weight-left ear piece weight, swelling rate=(swelling degree/left ear piece weight)×100%. Statistical t-test was performed on the test results, *P<0.05 was a significant difference, and **P<0.01 was a very significant difference. See Table 31 to Table 34 for the results.

“And” between values parts separate entries of the source, which are not always exact repeats. Equal entries are not always repeated. Marks after values point to notes of the source that are not given here.

Take `C[C@@H]1C[C@H]2[C@@H]3CCC4=CC(=O)C=C[C@]4(C)[C@@]3(F)[C@@H](O)C[C@]2(C)[C@@]1(O)C(=O)CO` [Dex, dexamethasone, reference compound]: in the test on mouse spleen lymphocytes, the “A570 nm/A630 nm” value was 0.3809 ± 0.1036 and 0.3832 ± 0.1042 and 0.3715 ± 0.1266 and 0.3905 ± 0.1094; the “Inhibition Rate of spleen lymphocyte proliferation” value was 44.66% and 45.92% and 43.72%. Further, the inhibition at 20 µg/mL with mouse spleen lymphocytes (Mus musculus, Lymphocyte, read-out: Inhibition Rate of spleen lymphocyte proliferation) was 44.8%. Further, in test [1], the IL-1β is 361.03 ± 18.27 pg/mL and 368.23 ± 18.27 pg/mL and 361.45 ± 19.17 pg/mL and 359.92 ± 19.17 pg/mL; the “Inhibition Rate of IL-1β production” value is 60.24% and 60.58% and 60.97%. The inhibition at 20 µg/mL in test [1] (Mus musculus, Peritoneal macrophage, read-out: Inhibition Rate of IL-1β production) was determined as 61.5%.
On to “Avastin: positive control in HUVEC migration and HRCEC proliferation tests [reference compound]”, for which, in test [2], the “cell migration number (Mean ± SD)” value is 564.53 ± 60.36 and 560.64 ± 62.06 and 532.80 ± 60.06 and 572.06 ± 48.92; the “inhibition rate of HUVEC migration” value is 46.78%* and 45.92%* and 48.22%* and 47.62%*. Also, the Inhibition rate in test [3] (HRCEC proliferation) is 65.83%** and 64.93%** and 65.71%** and 66.07%**. The “A570 nm-A630 nm” value in test [3] (HRCEC, MTT) is 0.4479 ± 0.08104 and 0.4636 ± 0.08322 and 0.4494 ± 0.08132 and 0.4518 ± 0.08013.
As for `CC(=O)Oc1ccccc1C(=O)O` [aspirin, reference compound], the Swelling in test [4] (2 h after xylene) was 3.07 ± 0.31** mg and 3.02 ± 0.41** mg and 3.01 ± 0.53** mg and 2.98 ± 0.53** mg. Also, in test [4] (ear swelling vs control), the “Inhibition rate” value is 50.02% and 51.11% and 50.87% and 50.93%.
